In ChEMBL document CHEMBL5705896 (ACS Chem Biol, 2013):
Calls of active or inactive are those of the source. The rule behind the calls is not given here.

Columns and labels:
[1] = biological target: Epidermal growth factor receptor (Homo sapiens) (UniProt P00533); assay: Inhibition of human cytoplasmic domain N-terminal GST tagged EGFR (669 to 1210 end residues) expressed in baculovirus expression system using Srctide as substrate at 10 uM by mobility shift assay relative to control
[2] = biological target: Ephrin type-A receptor 2 (Homo sapiens) (UniProt P29317); assay: Inhibition of human cytoplasmic domain N-terminal GST tagged EPHA2 (572 to 976 end residues) expressed in baculovirus expression system using Blk/lyntide as substrate at 10 uM by mobility shift assay relative to control
[3] = biological target: Platelet-derived growth factor receptor alpha (Homo sapiens) (UniProt P16234); assay: Inhibition of human cytoplasmic domain N-terminal GST tagged PDGFR alpha (550 to 1089 residues) expressed in baculovirus expression system using CSKtide as substrate at 10 uM by mobility shift assay relative to control
[4] = biological target: Protein-tyrosine kinase 2-beta (Homo sapiens) (UniProt Q14289); assay: Inhibition of full length human N-terminal GST tagged PYK2 (1 to 967 end residues) expressed in baculovirus expression system using Blk/lyntide as substrate at 10 uM by mobility shift assay relative to control
[5] = biological target: Angiopoietin-1 receptor (Homo sapiens) (UniProt Q02763); assay: Inhibition of human cytoplasmic domain N-terminal GST tagged TIE2 (771 to 1124 end residues) expressed in baculovirus expression system using Blk/lyntide as substrate at 10 uM by mobility shift assay relative to control
[6] = biological target: AMP-activated protein kinase (AMPK) alpha-1/beta-1/gamma-1 (Homo sapiens) (UniProt P54619+Q9Y478+Q13131); assay: Inhibition of full length human N-terminal GST tagged AMPK alpha1(1 to 550 end residues)/beta1 (1 to 270 end residues)/gamma1 (1 to 331 end residues) expressed in baculovirus expression system using SAMS peptide as substrate at 10 uM by mobility shift assay relative to control
[7] = biological target: Death-associated protein kinase 1 (Homo sapiens) (UniProt P53355); assay: Inhibition of human catalytic domain N-terminal GST tagged DAPK1 (1 to 289 residues) expressed in baculovirus expression system using DAPK1tide as substrate at 10 uM by mobility shift assay relative to control
[8] = biological target: Mitogen-activated protein kinase kinase kinase kinase 4 (Homo sapiens) (UniProt O95819); assay: Inhibition of human catalytic domain N-terminal GST tagged HGK (1 to 328 residues) expressed in baculovirus expression system using moesin-derived peptide as substrate at 10 uM by mobility shift assay relative to control
[9] = biological target: Inhibitor of nuclear factor kappa-B kinase subunit beta (Homo sapiens) (UniProt O14920); assay: Inhibition of truncated human N-terminal his-tagged IKK beta (1 to 662 residues) expressed in baculovirus expression system using modified IkappaB-alpha derived peptide as substrate at 10 uM by mobility shift assay relative to control
[10] = biological target: MAP kinase-activated protein kinase 2 (Homo sapiens) (UniProt P49137); assay: Inhibition of full length human N-terminal GST tagged MAPKAPK2 1 to 400 end residues) expressed in baculovirus expression system using GS as peptide at 10 uM by mobility shift assay relative to control
[11] = biological target: Mitogen-activated protein kinase 14 (Homo sapiens) (UniProt Q16539); assay: Inhibition of truncated human N-terminal GST-tagged p38 alpha (9 to 352 residues) expressed in Escherichia coli expression system using modified Erktide as substrate at 10 uM by mobility shift assay relative to control
[12] = biological target: Serine/threonine-protein kinase pim-1 (Homo sapiens) (UniProt P11309); assay: Inhibition of full length human N-terminal his-tagged PIM1 (1 to 313 end residues) expressed in baculovirus expression system using S6K2 peptide as substrate at 10 uM by mobility shift assay relative to control
[13] = biological target: Protein kinase C alpha type (Homo sapiens) (UniProt P17252); assay: Inhibition of full length human N-terminal GST tagged PKC alpha (1 to 672 end residues) expressed in baculovirus expression system using PKC as peptide at 10 uM by mobility shift assay relative to control
[14] = biological target: 5-hydroxytryptamine receptor 2B (Homo sapiens) (UniProt P41595); assay: Inhibition of 5-HT2B receptor (unknown origin) at 10 uM by radioligand binding assay relative to control
[15] = biological target: Beta-3 adrenergic receptor (Homo sapiens) (UniProt P13945); assay: Inhibition of Beta3receptor (unknown origin) at 10 uM by radioligand binding assay relative to control
[16] = biological target: Muscarinic acetylcholine receptor M1 (Homo sapiens) (UniProt P11229); assay: Inhibition of M1 receptor (unknown origin) at 10 uM by radioligand binding assay relative to control
[17] = biological target: Muscarinic acetylcholine receptor M4 (Homo sapiens) (UniProt P08173); assay: Inhibition of M4 receptor (unknown origin) at 10 uM by radioligand binding assay relative to control
[18] = biological target: Mu-type opioid receptor (Homo sapiens) (UniProt P35372); assay: Inhibition of MOR (unknown origin) at 10 uM by radioligand binding assay relative to control
[19] = biological target: Sigma intracellular receptor 2 (Homo sapiens, UniProt Q5BJF2); assay: Binding affinity to sigma 2 receptor (unknown origin) assessed as inhibition constant
[20] = biological target: Histone-lysine N-methyltransferase 2A (Homo sapiens, UniProt Q03164); assay: Inhibition of MLL1 (unknown origin) using [3H-SAM] as substrate incubated for 1 hr by scintillation proximity assay
[21] = biological target: DNA (cytosine-5)-methyltransferase 1 (Homo sapiens, UniProt P26358); assay: Inhibition of DNMT1 (unknown origin) using hemimethylated dsDNA as substrate incubated for 1 hr by scintillation proximity assay
[22] = biological target: Histone-lysine N-methyltransferase KMT5C (Homo sapiens, UniProt Q86Y97); assay: Inhibition of SUV420H2 (unknown origin) using [3H-SAM] as substrate incubated for 1 hr by scintillation proximity assay
[23] = biological target: Histone-lysine N-methyltransferase SETDB1 (Homo sapiens, UniProt Q15047); assay: Inhibition of SETDB1 (unknown origin) using [3H-SAM] as substrate incubated for 1 hr by scintillation proximity assay
[24] = test system: DB; assay: Antiproliferative activity against human DB cells assessed as reduction in cell viability at 100 to 5000 nM measured after 3 days by cell proliferation assay; type: functional, cell-based; details: dose 100-5000 nM, time 3.0 day
[25] = test system: DB; assay: Antiproliferative activity against human DB cells assessed as reduction in cell viability at 3000 nM measured after 8 days by cell proliferation assay; type: functional, cell-based; details: time 8.0 day
[26] = test system: DB; assay: Downregulation of H3K27me3 level in human DB cells at 3000 nM measured after 3 days; type: functional, cell-based; details: time 3.0 day
[27] = Toxicity in Swiss albino mouse assessed as drug tolerance at 15 to 150 mg/kg administered as single ip dose measured upto 24 hrs; type: organism-based; details: in vivo, dose 15-150 mg/kg
[28] = biological target: Histamine H3 receptor (Homo sapiens, UniProt Q9Y5N1)
[29] = biological target: Sodium-dependent noradrenaline transporter (Homo sapiens, UniProt P23975)

CCCc1cc(C)[nH]c(=O)c1CNC(=O)c1cc(-c2ccc(N3CCN(C(C)C)CC3)nc2)cc2c1cnn2C(C)C
inhibition [1]: -3%
inhibition [2]: -6%
inhibition [3]: -5%
inhibition [4]: -5%
inhibition [5]: -6%
inhibition [6]: -3%
inhibition [7]: -4%
inhibition [8]: -2%
inhibition [9]: -3%
inhibition [10]: 4%
inhibition [11]: 0%
inhibition [12]: 1%
inhibition [13]: -4%
inhibition [14]: -9%
inhibition [15]: 10%
inhibition [16]: 19%
inhibition [17]: 21%
inhibition [18]: 13%
Ki [19]: 0.065 µM
IC50 [20]: > 100 µM
IC50 [21]: > 100 µM
IC50 [22]: > 100 µM
IC50 [23]: > 100 µM
Activity [24]: inactive
Activity [25]: Active
Activity [26]: Active
Activity [27]: Non-Toxic
Ki [28]: 0.3 µM
Ki [29]: 1.5 µM
